# Measured values as given in paper PMC8364686, “Safety, tolerability, pharmacokinetics and pharmacodynamics of single oral doses of BI 187004, an inhibitor of 11beta-hydroxysteroid dehydrogenase-1, in healthy male volunteers with overweight or obesity” (Clinical Diabetes and Endocrinology, 2021).
# Where two headings read alike, the source gives them in different places.
# Assay: BI 187004 concentration in subcutaneous adipose tissue biopsies (LC–MS/MS)
# Type: in vivo, human
# Conditions: for Kp at 10 h / Kp at 24 h / concentration at 10 h / concentration at 24 h: male, human, oral; for Kp at 10 h: read-out: AT:plasma ratio (range) 10 h; for Kp at 24 h: read-out: AT:plasma ratio (range) 24 h; for concentration at 10 h: read-out: AT C10 gMean (range); for concentration at 24 h: read-out: AT C24 gMean (range)
# Protocol: The assay was qualified for the BI 187004 concentration range of 2.5—10,000 ng/g. The BI 187004 AT concentration data for study samples were generated from seven analytical runs. For each run, the acceptance criteria for the calibration standards and QC samples were met. Acceptance criteria for all sample analysis runs were ≤ 25% RSD (relative standard deviation / precision) and ± 25% RE (relative error / accuracy) for calibration standards and quality control samples.
structure (smiles),measurement,setting,value
N#Cc1ccc2c(c1)[C@H]1CCCN(C(=O)c3ccc4[nH]cnc4c3)[C@H]1C2 [BI 187004],AT:plasma ratio (range) 24 h,"10 mg single dose, 24 h, only range printed",– (9.58 – 20.1)
same,AT C24 gMean (range),"10 mg single dose, adipose tissue, 24 h, only range printed",– (9.91 – 22.6) nmol/L
same,Plasma concentration compared with AT concentration (times higher),24 h post dosing,approximately 10
same,"Ratio ATC24/PlasmaC24, range across dose groups",24 h post dosing,8.58—11.4
same,Kp at 10 h,"subcutaneous adipose tissue / plasma, 40 mg single dose",10.1
same,Kp at 24 h,"subcutaneous adipose tissue / plasma, 40 mg single dose, 24 h",8.58
same,Kp at 10 h,"subcutaneous adipose tissue / plasma, 80 mg single dose",8.36
same,Kp at 24 h,"subcutaneous adipose tissue / plasma, 80 mg single dose, 24 h",9.62
same,Kp at 10 h,"subcutaneous adipose tissue / plasma, 160 mg single dose",13.7
same,Kp at 24 h,"subcutaneous adipose tissue / plasma, 160 mg single dose, 24 h",10.3
same,Kp at 24 h,"subcutaneous adipose tissue / plasma, 240 mg single dose, 24 h",9.96
same,Kp at 10 h,"subcutaneous adipose tissue / plasma, 360 mg single dose",16.2
same,Kp at 24 h,"subcutaneous adipose tissue / plasma, 360 mg single dose, 24 h",11.4
same,Kp at 10 h,"subcutaneous adipose tissue and plasma, 240 mg single dose",25.1
same,Kp at 10 h,"subcutaneous adipose tissue, 10 mg single dose",10.3
same,concentration at 10 h,"subcutaneous adipose tissue, 10 mg single dose, adipose tissue",17.9 nM
same,Kp at 10 h,"subcutaneous adipose tissue, 20 mg single dose",9.97
same,Kp at 24 h,"subcutaneous adipose tissue, 20 mg single dose, 24 h",10.8
same,concentration at 10 h,"subcutaneous adipose tissue, 20 mg single dose, adipose tissue",38.1 nM
same,concentration at 24 h,"subcutaneous adipose tissue, 20 mg single dose, adipose tissue, 24 h",17.5 nM
same,concentration at 10 h,"subcutaneous adipose tissue, 40 mg single dose, adipose tissue",80.3 nM
same,concentration at 24 h,"subcutaneous adipose tissue, 40 mg single dose, adipose tissue, 24 h",27.5 nM
same,concentration at 10 h,"subcutaneous adipose tissue, 80 mg single dose, adipose tissue",128 nM
same,concentration at 24 h,"subcutaneous adipose tissue, 80 mg single dose, adipose tissue, 24 h",84.5 nM
same,concentration at 10 h,"subcutaneous adipose tissue, 160 mg single dose, adipose tissue",412 nM
same,concentration at 24 h,"subcutaneous adipose tissue, 160 mg single dose, adipose tissue, 24 h",168 nM
same,concentration at 10 h,"subcutaneous adipose tissue, 240 mg single dose, adipose tissue",653 nM
same,concentration at 24 h,"subcutaneous adipose tissue, 240 mg single dose, adipose tissue, 24 h",212 nM
same,concentration at 10 h,"subcutaneous adipose tissue, 360 mg single dose, adipose tissue",857 nM
same,concentration at 24 h,"subcutaneous adipose tissue, 360 mg single dose, adipose tissue, 24 h",307 nM
